Tests used:
Type in all cases: in vitro ADME
UGT1A9 = target: T1, UGT1A9 (Homo sapiens, UniProt O60656); test: Glucuronidation by expressed human UGT1A9; details: for glucuronidation rate: UGT1A9, 2.5 μM substrate, 37°C
T1 sequence (O60656 26-530): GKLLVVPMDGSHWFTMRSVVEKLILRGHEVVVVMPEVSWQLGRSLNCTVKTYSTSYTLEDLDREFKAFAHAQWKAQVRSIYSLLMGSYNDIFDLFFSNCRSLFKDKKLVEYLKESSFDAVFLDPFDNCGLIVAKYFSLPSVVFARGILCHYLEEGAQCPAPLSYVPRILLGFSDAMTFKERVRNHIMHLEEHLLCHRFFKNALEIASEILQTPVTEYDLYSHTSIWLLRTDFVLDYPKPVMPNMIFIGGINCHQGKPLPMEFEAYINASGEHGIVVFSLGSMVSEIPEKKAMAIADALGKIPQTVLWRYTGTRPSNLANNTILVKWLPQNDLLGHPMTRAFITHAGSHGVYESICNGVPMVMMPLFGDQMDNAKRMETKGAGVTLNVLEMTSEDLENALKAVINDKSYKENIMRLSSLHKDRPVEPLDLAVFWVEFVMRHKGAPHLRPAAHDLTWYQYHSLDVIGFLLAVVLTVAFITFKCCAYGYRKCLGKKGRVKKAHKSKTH

[1] = Glucuronidation by pooled human liver microsomes; details: human liver microsomes, 2.5μM substrate
UGT1A1 = target: T2, UGT1A1 (Homo sapiens, UniProt P22309); test: Glucuronidation by expressed human UGT1A1; details: 37°C
T2 sequence (P22309 26-533): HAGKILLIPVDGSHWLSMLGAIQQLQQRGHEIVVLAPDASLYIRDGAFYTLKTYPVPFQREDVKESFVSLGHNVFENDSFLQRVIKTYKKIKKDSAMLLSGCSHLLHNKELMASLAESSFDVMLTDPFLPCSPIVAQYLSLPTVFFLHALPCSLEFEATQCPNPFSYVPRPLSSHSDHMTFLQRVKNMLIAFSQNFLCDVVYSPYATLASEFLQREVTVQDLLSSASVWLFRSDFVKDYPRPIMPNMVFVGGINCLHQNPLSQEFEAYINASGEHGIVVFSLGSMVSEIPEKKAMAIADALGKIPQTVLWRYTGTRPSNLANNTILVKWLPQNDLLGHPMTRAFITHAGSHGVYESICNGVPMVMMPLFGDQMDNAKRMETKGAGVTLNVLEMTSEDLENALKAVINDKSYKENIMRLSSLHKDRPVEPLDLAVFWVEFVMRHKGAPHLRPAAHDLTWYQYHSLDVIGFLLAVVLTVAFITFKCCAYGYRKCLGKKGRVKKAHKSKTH

UGT1A10 = target: T3, UGT1A10 (Homo sapiens, UniProt Q9HAW8); test: Glucuronidation by expressed human UGT1A10; details: UGT1A10, 10 μM substrate, 37°C
T3 sequence (Q9HAW8 26-530): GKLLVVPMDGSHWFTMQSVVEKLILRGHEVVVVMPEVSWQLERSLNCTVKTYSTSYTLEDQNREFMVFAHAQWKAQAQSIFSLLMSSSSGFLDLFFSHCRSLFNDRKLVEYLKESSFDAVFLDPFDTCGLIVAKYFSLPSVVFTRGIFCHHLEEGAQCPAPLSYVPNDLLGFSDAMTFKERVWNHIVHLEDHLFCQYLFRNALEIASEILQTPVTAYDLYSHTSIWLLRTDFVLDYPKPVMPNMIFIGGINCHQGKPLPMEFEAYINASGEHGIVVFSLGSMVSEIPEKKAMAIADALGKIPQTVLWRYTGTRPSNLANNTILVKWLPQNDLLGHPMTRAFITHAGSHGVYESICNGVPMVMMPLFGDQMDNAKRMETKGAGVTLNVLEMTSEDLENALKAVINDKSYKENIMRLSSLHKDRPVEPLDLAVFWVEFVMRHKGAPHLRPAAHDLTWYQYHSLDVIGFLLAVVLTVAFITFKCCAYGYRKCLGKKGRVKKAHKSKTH

UGT2B7 = target: T4, UGT2B7 (Homo sapiens, UniProt P16662); test: Glucuronidation by expressed human UGT2B7; details: for glucuronidation rate: 37°C; for substrate of UGT2B7: UGT2B7, conclusion from fingerprints
T4 sequence (P16662 24-529): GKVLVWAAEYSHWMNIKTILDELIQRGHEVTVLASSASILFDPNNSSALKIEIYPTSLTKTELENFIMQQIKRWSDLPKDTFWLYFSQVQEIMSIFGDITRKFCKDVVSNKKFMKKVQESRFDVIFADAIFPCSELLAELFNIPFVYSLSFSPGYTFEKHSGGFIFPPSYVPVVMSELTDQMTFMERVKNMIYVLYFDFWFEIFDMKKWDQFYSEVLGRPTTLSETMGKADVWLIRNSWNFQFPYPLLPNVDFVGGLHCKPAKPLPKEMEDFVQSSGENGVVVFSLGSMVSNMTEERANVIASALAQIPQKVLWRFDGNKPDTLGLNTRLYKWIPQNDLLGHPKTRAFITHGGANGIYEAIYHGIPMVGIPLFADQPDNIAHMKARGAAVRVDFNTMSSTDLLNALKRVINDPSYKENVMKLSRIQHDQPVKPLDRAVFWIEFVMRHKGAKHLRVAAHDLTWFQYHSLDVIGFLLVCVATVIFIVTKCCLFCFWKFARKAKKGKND

UGT1A7 = target: T5, UGT1A7 (Homo sapiens, UniProt Q9HAW7); test: Glucuronidation by expressed human UGT1A7; details: UGT1A7, 2.5μM substrate, 37°C
T5 sequence (Q9HAW7 26-530): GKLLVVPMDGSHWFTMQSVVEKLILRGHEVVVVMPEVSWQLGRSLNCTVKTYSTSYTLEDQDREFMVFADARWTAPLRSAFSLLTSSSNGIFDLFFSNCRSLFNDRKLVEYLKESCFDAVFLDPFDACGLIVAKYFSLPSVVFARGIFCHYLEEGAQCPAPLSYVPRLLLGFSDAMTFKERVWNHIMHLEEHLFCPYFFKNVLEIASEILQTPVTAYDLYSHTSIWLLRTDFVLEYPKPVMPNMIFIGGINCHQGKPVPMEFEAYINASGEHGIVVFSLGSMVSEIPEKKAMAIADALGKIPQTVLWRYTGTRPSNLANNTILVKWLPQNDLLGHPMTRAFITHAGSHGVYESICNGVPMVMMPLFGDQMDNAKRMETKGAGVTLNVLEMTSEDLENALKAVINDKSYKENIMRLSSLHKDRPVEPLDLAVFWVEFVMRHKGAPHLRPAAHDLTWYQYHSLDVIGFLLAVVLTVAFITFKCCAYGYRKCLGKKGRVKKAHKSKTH

[2] = Glucuronidation by pooled human intestinal microsomes; details: human intestinal microsomes
UGT1A8 = target: T6, UGT1A8 (Homo sapiens, UniProt Q9HAW9); test: Glucuronidation by expressed human UGT1A8; details: UGT1A8, 2.5μM substrate, 37°C
T6 sequence (Q9HAW9 26-530): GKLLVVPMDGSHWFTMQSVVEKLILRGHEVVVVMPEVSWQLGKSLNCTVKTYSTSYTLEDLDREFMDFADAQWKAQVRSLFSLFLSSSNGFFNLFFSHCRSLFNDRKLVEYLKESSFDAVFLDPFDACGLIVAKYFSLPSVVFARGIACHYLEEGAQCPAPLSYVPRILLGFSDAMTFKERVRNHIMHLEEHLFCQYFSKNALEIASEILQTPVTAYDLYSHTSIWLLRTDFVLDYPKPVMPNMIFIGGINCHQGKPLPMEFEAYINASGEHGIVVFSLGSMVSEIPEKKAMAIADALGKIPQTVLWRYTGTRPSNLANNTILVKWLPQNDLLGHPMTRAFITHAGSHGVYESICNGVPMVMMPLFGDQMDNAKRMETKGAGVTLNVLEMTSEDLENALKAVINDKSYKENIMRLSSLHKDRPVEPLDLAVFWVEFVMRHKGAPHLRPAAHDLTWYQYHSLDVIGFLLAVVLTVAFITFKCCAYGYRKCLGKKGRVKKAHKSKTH

SMILES	glucuronidation rate (UGT1A9)	glucuronidation rate [1]	glucuronidation rate (UGT1A1; UGT1A1, 2.5μM substrate)	glucuronidation rate (UGT1A1; UGT1A1, 10μM substrate)	glucuronidation rate (UGT1A1; UGT1A1, 35μM substrate)	glucuronidation rate (UGT1A10)	glucuronidation rate (UGT2B7; UGT2B7, 2.5μM substrate)	glucuronidation rate (UGT2B7; UGT2B7, 10μM substrate)	glucuronidation rate (UGT2B7; UGT2B7, 35μM substrate)	substrate of UGT2B7 (UGT2B7)	glucuronidation rate (UGT1A7)	glucuronidation rate ([2]; 2.5 μM substrate)	magnitude of the difference between fastest and slowest glucuronidation rate ([2]; 2.5 μM, 3-HF vs 5-HF)	glucuronidation rate (UGT1A8)	glucuronidation (detectable metabolism) (UGT1A9; UGT1A9, 35 μM substrate)
O=c1c(O)c(-c2ccccc2)oc2ccccc12 [3-HF, 3-hydroxyflavone]	3.03±0.04 nmol per min per mg of protein	5.04±0.48 nmol per min per mg of protein	2.68 ± 0.47 nmol per min per mg of protein	3.80±0.21 nmol per min per mg of protein	3.85±0.12 nmol per min per mg of protein	1.37±0.19 nmol per min per mg of protein	1.39±0.14 nmol per min per mg of protein	5.35±0.91 nmol per min per mg of protein	2.19±0.07 nmol per min per mg of protein	substrates	8.27±0.15 nmol per min per mg of protein	12.35±1.32 nmol per min per mg of protein	25 folds	2.19 ± 0.27 nmol per min per mg of protein	
O=c1cc(-c2cccc(O)c2)oc2ccccc12 [3′-HF, 3′-hydroxyflavone]	0.48±0.13 nmol per min per mg of protein	3.14±0.01 nmol per min per mg of protein	1.59 ±0.26 nmol per min per mg of protein			0.86±0.08 nmol per min per mg of protein					1.44±0.20 nmol per min per mg of protein			0.27 ±0.02 nmol per min per mg of protein	
O=c1cc(-c2ccccc2)oc2cc(O)ccc12 [7-HF, 7-hydroxyflavone]	1.30±0.09 nmol per min per mg of protein	1.39±0.01 nmol per min per mg of protein	1.73 ±0.21 nmol per min per mg of protein			0.17±0.03 nmol per min per mg of protein					0 nmol per min per mg of protein			0.23±0.03 nmol per min per mg of protein	
O=c1c(O)c(-c2ccccc2)oc2cccc(O)c12 [3,5-diHF, 3,5-dihydroxyflavone]										substrates					
O=c1c(O)c(-c2ccccc2)oc2cc(O)ccc12 [3,7-diHF, 3,7-dihydroxyflavone]										substrates					
O=c1cc(-c2ccccc2O)oc2ccccc12 [2′-HF, 2′-hydroxyflavone]	0.43±0.06 nmol per min per mg of protein	0.97±0.03 nmol per min per mg of protein	1.28±0.12 nmol per min per mg of protein			0.09±0.01 nmol per min per mg of protein					1.13±0.11 nmol per min per mg of protein			1.18±0.26 nmol per min per mg of protein	
O=c1cc(-c2ccccc2)oc2ccc(O)cc12 [6-HF, 6-hydroxyflavone]	0.10±0.00 nmol per min per mg of protein	0.91±0.04 nmol per min per mg of protein	1.50±0.18 nmol per min per mg of protein			0.62±0.07 nmol per min per mg of protein					0 nmol per min per mg of protein			0.87±0.12 nmol per min per mg of protein	
O=c1cc(-c2ccc(O)cc2)oc2ccccc12 [4′-HF, 4′-hydroxyflavone]	not detectable	0.80±0.05 nmol per min per mg of protein	1.34 ±0.21 nmol per min per mg of protein			0.30±0.05 nmol per min per mg of protein					0 nmol per min per mg of protein			0.00±0.00 nmol per min per mg of protein	no detectable metabolism
O=c1c(O)c(-c2ccc(O)cc2)oc2ccccc12 [3,4′-diHF, 3,4′-dihydroxyflavone]										substrates					
